According to publication PMC12420824, “Discovery of a selective alpha-kinase 1 inhibitor for the rare genetic disease ROSAH syndrome” (Nature Communications, 2025):
Values joined by “and” are separate entries in the source; they are usually repeats but may differ in a detail not shown here. Equal entries are not always repeated. Where two headings read alike, the source gives them in different places.

Key:
[1] = target: TNIK (Homo sapiens, UniProt Q9UKE5); assay: HotSpot kinase assay; conditions: read-out: % Enzyme Activity (relative to DMSO control), 10 uM
[2] = system: HEK-293 cells transfected with GFP-TIFA; assay: DF-006-induced TIFAsome formation
Procedure: Curve fitting and IC50 value calculations were performed with GraphPad Prism 6.
HEK-293 cells were purchased from the Cell Bank of The Chinese Academy of Sciences and routinely cultured in DMEM/High-Glucose (Hyclone). For TIFAsome analyses, the coding sequence for the GFP-TIFA fusion protein was cloned into the pcDNA3.1 plasmid. […] Each condition was conducted in sextuplicate. Cells were fixed with 4% paraformaldehyde and stained with DAPI (Shanghai Zhenghuang, Shanghai, China; C1005). Fluorescent images were acquired using a Motic upright fluorescent microscope (PA53 BIO FS6).

[3] = target: CDK1/cyclin A (Homo sapiens, UniProt P06493); assay: HotSpot kinase assay; conditions: read-out: % Enzyme Activity (relative to DMSO control), 10 uM
Source text: (§1) Additionally, a 10-dose dilution series of staurosporine and other enzyme-appropriate compounds were included as positive control inhibitors.

[4] = target: JNK2 (Homo sapiens, UniProt P45984); assay: HotSpot kinase assay; conditions: read-out: % Enzyme Activity (relative to DMSO control), 10 uM
Source text: as §1

[5] = target: HIPK4 (Homo sapiens, UniProt Q8NE63); assay: HotSpot kinase assay; conditions: read-out: % Enzyme Activity (relative to DMSO control), 10 uM
[6] = target: SGK2 (Homo sapiens, UniProt Q9HBY8); assay: HotSpot kinase assay; conditions: read-out: % Enzyme Activity (relative to DMSO control), 10 uM
Source text: as §1

[7] = target: BRSK2 (Homo sapiens, UniProt Q8IWQ3); assay: HotSpot kinase assay; conditions: read-out: % Enzyme Activity (relative to DMSO control), 10 uM
Source text: as §1

[8] = target: GRK3 (Homo sapiens, UniProt P35626); assay: HotSpot kinase assay; conditions: read-out: % Enzyme Activity (relative to DMSO control), 10 uM
Source text: as §1

[9] = target: AMPK(A2/B1/G1) (Homo sapiens, UniProt P54646); assay: HotSpot kinase assay; conditions: read-out: % Enzyme Activity (relative to DMSO control), 10 uM
Source text: as §1

[10] = target: PKCb1 (Homo sapiens, UniProt P05771); assay: HotSpot kinase assay; conditions: read-out: % Enzyme Activity (relative to DMSO control), 10 uM
Source text: as §1

[11] = target: CK1g1 (Homo sapiens, UniProt Q9HCP0); assay: HotSpot kinase assay; conditions: read-out: % Enzyme Activity (relative to DMSO control), 10 uM
Source text: as §1

[12] = target: BRAF (Homo sapiens, UniProt P15056); assay: HotSpot kinase assay; conditions: read-out: % Enzyme Activity (relative to DMSO control), 10 uM
[13] = system: THP-1 macrophages; assay: cells; conditions: Homo sapiens, THP-1, 4 h
[14] = target: JNK3 (Homo sapiens, UniProt P53779); assay: HotSpot kinase assay; conditions: read-out: % Enzyme Activity (relative to DMSO control), 10 uM
Source text: as §1

[15] = target: FGFR1 (Homo sapiens, UniProt P11362); assay: HotSpot kinase assay; conditions: read-out: % Enzyme Activity (relative to DMSO control), 10 uM
Source text: as §1

[16] = target: FAK/PTK2 (Homo sapiens, UniProt Q05397); assay: HotSpot kinase assay; conditions: read-out: % Enzyme Activity (relative to DMSO control), 10 uM
Source text: as §1

[17] = target: mTOR/FRAP1 (Homo sapiens, UniProt P42345); assay: HotSpot kinase assay; conditions: read-out: % Enzyme Activity (relative to DMSO control), 10 uM
Source text: as §1

[18] = target: ERBB2/HER2 (Homo sapiens, UniProt P04626); assay: HotSpot kinase assay; conditions: read-out: % Enzyme Activity (relative to DMSO control), 10 uM
Source text: as §1

[19] = target: ERK7/MAPK15 (Homo sapiens, UniProt Q8TD08); assay: HotSpot kinase assay; conditions: read-out: % Enzyme Activity (relative to DMSO control), 10 uM
Source text: as §1

[20] = target: MSSK1/STK23 (Homo sapiens, UniProt Q9UPE1); assay: HotSpot kinase assay; conditions: read-out: % Enzyme Activity (relative to DMSO control), 10 uM
[21] = target: LATS2 (Homo sapiens, UniProt Q9NRM7); assay: HotSpot kinase assay; conditions: read-out: % Enzyme Activity (relative to DMSO control), 10 uM
Source text: as §1

[22] = target: CAMK2d (Homo sapiens, UniProt Q13557); assay: HotSpot kinase assay; conditions: read-out: % Enzyme Activity (relative to DMSO control), 10 uM
[23] = target: PKCIOTA (Homo sapiens, UniProt P41743); assay: HotSpot kinase assay; conditions: read-out: % Enzyme Activity (relative to DMSO control), 10 uM
Source text: as §1

[24] = target: WNK2 (Homo sapiens, UniProt Q9Y3S1); assay: HotSpot kinase assay; conditions: read-out: % Enzyme Activity (relative to DMSO control), 10 uM
[25] = target: PDK4/PDHK4 (Homo sapiens, UniProt Q16654); assay: HotSpot kinase assay; conditions: read-out: % Enzyme Activity (relative to DMSO control), 10 uM
Source text: as §1

[26] = target: LIMK1 (Homo sapiens, UniProt P53667); assay: HotSpot kinase assay; conditions: read-out: % Enzyme Activity (relative to DMSO control), 10 uM
[27] = target: MEK1 (Homo sapiens, UniProt Q02750); assay: HotSpot kinase assay; conditions: read-out: % Enzyme Activity (relative to DMSO control), 10 uM
Source text: as §1

[28] = target: MYLK4 (Homo sapiens, UniProt Q86YV6); assay: HotSpot kinase assay; conditions: read-out: % Enzyme Activity (relative to DMSO control), 10 uM
Source text: as §1

[29] = target: BRK (Homo sapiens, UniProt Q13882); assay: HotSpot kinase assay; conditions: read-out: % Enzyme Activity (relative to DMSO control), 10 uM
Source text: as §1

[30] = target: AMPK (A1/B2/G2) (Homo sapiens, UniProt Q13131); assay: HotSpot kinase assay; conditions: read-out: % Enzyme Activity (relative to DMSO control), 10 uM
Source text: as §1

[31] = target: PASK (Homo sapiens, UniProt Q96RG2); assay: HotSpot kinase assay; conditions: read-out: % Enzyme Activity (relative to DMSO control), 10 uM
Source text: as §1

[32] = target: CAMK2a (Homo sapiens, UniProt Q9UQM7); assay: HotSpot kinase assay; conditions: read-out: % Enzyme Activity (relative to DMSO control), 10 uM
[33] = target: CDK9/cyclin T1 (Homo sapiens, UniProt P50750); assay: HotSpot kinase assay; conditions: read-out: % Enzyme Activity (relative to DMSO control), 10 uM
[34] = target: MAPKAPK3 (Homo sapiens, UniProt Q16644); assay: HotSpot kinase assay; conditions: read-out: % Enzyme Activity (relative to DMSO control), 10 uM
Source text: as §1

[35] = target: LOK/STK10 (Homo sapiens, UniProt O94804); assay: HotSpot kinase assay; conditions: read-out: % Enzyme Activity (relative to DMSO control), 10 uM
Source text: as §1

[36] = target: NEK11 (Homo sapiens, UniProt Q8NG66); assay: HotSpot kinase assay; conditions: read-out: % Enzyme Activity (relative to DMSO control), 10 uM
Source text: as §1

[37] = target: AMPK(A1/B1/G2) (Homo sapiens, UniProt Q13131); assay: HotSpot kinase assay; conditions: read-out: % Enzyme Activity (relative to DMSO control), 10 uM
Source text: as §1

[38] = target: EIF2AK4 (Homo sapiens, UniProt Q9P2K8); assay: HotSpot kinase assay; conditions: read-out: % Enzyme Activity (relative to DMSO control), 10 uM
Source text: as §1

Sequence of PDK4/PDHK4 (Q16654 whole entry): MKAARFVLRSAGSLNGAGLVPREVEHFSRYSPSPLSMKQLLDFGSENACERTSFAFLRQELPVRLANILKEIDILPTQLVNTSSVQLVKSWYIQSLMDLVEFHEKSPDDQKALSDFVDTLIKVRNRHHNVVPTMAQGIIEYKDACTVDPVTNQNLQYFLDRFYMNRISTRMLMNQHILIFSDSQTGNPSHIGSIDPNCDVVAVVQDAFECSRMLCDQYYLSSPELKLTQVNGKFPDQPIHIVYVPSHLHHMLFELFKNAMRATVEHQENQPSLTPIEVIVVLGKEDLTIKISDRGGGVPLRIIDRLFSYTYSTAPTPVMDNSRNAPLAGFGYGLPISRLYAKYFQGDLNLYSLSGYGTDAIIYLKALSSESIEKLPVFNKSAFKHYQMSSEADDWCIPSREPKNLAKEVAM
Sequence of MAPKAPK3 (Q16644 whole entry): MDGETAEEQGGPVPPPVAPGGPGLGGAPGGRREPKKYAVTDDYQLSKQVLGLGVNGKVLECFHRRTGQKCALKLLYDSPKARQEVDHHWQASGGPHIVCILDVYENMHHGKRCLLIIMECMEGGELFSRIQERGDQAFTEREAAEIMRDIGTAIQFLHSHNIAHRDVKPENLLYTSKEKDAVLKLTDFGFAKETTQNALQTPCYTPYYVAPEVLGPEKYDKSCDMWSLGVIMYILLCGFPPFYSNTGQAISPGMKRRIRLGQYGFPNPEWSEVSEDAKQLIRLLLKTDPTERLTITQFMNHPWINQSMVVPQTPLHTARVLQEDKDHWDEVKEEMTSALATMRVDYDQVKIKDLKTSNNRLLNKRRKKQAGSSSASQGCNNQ
Sequence of AMPK(A2/B1/G1) (P54646 whole entry): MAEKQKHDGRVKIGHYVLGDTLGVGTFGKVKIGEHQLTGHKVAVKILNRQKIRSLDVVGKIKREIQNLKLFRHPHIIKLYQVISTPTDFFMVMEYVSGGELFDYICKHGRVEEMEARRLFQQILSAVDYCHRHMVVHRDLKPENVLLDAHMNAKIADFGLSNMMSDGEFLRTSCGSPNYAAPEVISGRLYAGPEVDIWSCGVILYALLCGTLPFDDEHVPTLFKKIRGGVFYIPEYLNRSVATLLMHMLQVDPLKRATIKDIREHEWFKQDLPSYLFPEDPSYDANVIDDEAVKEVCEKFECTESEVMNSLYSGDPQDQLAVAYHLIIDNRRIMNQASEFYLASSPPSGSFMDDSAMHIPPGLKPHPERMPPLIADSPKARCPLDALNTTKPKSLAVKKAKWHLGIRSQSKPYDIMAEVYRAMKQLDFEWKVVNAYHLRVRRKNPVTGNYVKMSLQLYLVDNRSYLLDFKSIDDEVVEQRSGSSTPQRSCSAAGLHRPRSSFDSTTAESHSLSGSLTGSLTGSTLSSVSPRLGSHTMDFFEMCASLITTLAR
Sequence of AMPK(A2/B1/G1) (Q9Y478 whole entry partner): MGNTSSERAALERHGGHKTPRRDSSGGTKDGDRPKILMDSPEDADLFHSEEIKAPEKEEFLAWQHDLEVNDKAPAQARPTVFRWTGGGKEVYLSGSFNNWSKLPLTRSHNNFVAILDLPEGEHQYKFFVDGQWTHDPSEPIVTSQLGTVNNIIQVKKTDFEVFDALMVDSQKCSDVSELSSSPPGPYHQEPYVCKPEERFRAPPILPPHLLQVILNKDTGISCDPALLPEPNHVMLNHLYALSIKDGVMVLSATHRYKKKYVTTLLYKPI
Sequence of AMPK(A2/B1/G1) (P54619 whole entry partner): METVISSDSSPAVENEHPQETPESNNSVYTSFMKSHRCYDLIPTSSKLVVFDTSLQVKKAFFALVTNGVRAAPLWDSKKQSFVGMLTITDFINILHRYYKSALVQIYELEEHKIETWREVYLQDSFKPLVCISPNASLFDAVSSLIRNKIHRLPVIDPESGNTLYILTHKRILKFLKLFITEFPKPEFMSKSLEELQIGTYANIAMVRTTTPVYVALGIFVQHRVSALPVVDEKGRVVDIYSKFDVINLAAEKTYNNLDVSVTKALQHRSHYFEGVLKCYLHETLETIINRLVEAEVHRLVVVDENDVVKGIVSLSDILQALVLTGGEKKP
Sequence of CDK1/cyclin A (P20248 whole entry): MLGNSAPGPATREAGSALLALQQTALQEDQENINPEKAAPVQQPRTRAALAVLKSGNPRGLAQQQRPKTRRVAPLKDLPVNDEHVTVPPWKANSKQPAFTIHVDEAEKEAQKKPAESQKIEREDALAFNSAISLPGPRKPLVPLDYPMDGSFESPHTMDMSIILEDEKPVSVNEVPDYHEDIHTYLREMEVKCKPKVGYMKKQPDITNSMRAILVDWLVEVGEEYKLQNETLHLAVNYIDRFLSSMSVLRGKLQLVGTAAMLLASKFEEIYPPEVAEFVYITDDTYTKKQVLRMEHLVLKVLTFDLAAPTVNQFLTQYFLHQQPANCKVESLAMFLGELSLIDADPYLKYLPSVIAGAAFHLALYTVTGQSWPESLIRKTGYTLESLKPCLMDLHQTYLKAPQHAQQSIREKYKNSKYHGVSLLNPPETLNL
Sequence of CDK1/cyclin A (P06493 whole entry): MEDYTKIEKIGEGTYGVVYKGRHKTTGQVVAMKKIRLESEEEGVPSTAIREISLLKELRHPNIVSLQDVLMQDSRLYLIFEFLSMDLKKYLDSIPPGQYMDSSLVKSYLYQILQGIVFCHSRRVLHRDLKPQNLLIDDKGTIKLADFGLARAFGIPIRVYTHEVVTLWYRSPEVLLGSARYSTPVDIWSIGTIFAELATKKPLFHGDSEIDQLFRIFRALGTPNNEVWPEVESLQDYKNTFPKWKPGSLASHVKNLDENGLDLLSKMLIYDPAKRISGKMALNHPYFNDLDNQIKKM
Sequence of BRSK2 (Q8IWQ3 whole entry): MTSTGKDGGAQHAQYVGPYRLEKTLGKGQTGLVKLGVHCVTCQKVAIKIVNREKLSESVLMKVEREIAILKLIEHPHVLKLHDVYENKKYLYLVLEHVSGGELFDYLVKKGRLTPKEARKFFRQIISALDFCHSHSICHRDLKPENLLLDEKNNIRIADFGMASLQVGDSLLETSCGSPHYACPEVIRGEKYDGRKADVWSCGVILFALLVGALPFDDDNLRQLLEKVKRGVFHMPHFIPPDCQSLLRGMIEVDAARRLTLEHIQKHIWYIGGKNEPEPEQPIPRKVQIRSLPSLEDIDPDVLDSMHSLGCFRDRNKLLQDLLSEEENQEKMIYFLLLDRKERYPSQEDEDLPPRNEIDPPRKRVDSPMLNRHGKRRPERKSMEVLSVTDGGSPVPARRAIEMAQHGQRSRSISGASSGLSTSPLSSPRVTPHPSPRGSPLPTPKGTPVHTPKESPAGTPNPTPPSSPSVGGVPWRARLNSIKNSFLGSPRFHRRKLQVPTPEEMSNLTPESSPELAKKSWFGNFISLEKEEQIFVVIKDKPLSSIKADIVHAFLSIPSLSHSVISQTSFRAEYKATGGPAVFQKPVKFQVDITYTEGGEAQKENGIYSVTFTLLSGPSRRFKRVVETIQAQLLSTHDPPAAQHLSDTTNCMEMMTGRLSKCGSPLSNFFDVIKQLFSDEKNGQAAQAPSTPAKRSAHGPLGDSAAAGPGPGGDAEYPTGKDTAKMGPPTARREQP
Sequence of CAMK2d (Q13557 whole entry): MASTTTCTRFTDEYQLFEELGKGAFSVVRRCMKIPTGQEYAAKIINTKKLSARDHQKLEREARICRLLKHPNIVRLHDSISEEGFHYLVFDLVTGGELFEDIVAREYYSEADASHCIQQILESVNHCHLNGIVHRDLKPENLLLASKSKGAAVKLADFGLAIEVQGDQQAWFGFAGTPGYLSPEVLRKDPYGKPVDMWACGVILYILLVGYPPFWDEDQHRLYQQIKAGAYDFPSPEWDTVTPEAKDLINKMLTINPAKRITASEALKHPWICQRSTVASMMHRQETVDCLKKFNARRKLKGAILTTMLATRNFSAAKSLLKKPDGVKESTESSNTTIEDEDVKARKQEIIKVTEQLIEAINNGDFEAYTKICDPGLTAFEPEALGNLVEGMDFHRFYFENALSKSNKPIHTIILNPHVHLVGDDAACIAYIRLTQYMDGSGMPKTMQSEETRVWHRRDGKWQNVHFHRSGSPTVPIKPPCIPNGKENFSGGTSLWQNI
Sequence of MYLK4 (Q86YV6 whole entry): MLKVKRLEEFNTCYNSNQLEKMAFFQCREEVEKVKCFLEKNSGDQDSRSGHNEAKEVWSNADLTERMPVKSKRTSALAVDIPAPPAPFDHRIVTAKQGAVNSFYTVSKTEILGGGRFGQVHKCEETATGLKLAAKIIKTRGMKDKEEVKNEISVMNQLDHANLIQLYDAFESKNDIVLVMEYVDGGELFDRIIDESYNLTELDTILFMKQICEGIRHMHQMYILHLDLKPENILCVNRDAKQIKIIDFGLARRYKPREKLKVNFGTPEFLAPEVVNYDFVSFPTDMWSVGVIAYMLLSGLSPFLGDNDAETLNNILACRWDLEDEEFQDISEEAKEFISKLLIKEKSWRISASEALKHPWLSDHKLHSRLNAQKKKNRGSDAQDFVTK
Sequence of CAMK2a (Q9UQM7 whole entry): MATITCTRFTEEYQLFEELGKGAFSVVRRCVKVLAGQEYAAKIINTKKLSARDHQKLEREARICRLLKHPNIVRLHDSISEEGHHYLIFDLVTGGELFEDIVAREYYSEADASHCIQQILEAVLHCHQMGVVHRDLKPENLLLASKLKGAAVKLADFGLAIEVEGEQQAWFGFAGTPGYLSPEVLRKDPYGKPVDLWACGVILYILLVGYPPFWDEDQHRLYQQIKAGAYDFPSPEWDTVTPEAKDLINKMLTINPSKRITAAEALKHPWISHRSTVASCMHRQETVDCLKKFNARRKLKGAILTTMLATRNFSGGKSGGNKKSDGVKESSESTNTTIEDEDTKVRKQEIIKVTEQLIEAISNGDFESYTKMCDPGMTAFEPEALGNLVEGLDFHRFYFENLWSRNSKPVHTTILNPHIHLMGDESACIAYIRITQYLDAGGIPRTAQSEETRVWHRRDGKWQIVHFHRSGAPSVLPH

## C#C[C@@](C)(c1ccc(Cl)cc1)c1csc(NC(=O)c2c(F)cc(N3CCNCC3)cc2F)n1 (stereo in doubt) [DF-003]
[1]
  remaining activity at 10 µM: 75.5%
[2]; 10 nM to 1 μM, 1 μM DF-006 1 h
  effect on DF-006-induced TIFAsome formation: potently suppressed DF-006-induced TIFAsome formation
[2]; 200 nM DF-003+1 μM DF-006
  Cells with TIFAsomes /GFP positive cells (%): 2.74% and 2.86% and 1.45% and 4.74% and 3.09%
[2]; 1 μM DF-003+1 μM DF-006
  Cells with TIFAsomes /GFP positive cells (%): 1.25% and 0% and 3.05% and 2.92% and 5.22%
[3]
  remaining activity at 10 µM: 109%
[4]
  remaining activity at 10 µM: 107%
[5]
  remaining activity at 10 µM: 73.6%
[6]
  remaining activity at 10 µM: 77.6%
[7]
  remaining activity at 10 µM: 96%
[8]
  remaining activity at 10 µM: 111%
[9]
  remaining activity at 10 µM: 83.4%
[10]
  remaining activity at 10 µM: 91.2%
[11]
  remaining activity at 10 µM: 95%
[12]
  remaining activity at 10 µM: 84.1%
[13]; read-out: IC50, DF-006-induced CXCL8 upregulation
  IC50: 6.5 nM
[13]; read-out: IC50, DF-006-induced TNF upregulation
  IC50: 8 nM
[14]
  remaining activity at 10 µM: 92.2%
[15]
  remaining activity at 10 µM: 68.8%
[16]
  remaining activity at 10 µM: 128%
[17]
  remaining activity at 10 µM: 92.1%
[18]
  remaining activity at 10 µM: 95.9%
[19]
  remaining activity at 10 µM: 83.5%
[20]
  remaining activity at 10 µM: 84.2%
[21]
  remaining activity at 10 µM: 45.3%
[22]
  remaining activity at 10 µM: 7.88%
[23]
  remaining activity at 10 µM: 77.5%
[24]
  remaining activity at 10 µM: 104%
[25]
  remaining activity at 10 µM: 103%
[26]
  remaining activity at 10 µM: 98.3%
[27]
  remaining activity at 10 µM: 102%
[28]
  remaining activity at 10 µM: 87.1%
[29]
  remaining activity at 10 µM: 81.2%
[30]
  remaining activity at 10 µM: 113%
[31]
  remaining activity at 10 µM: 56.5%
[32]
  remaining activity at 10 µM: 9.74%
[33]
  remaining activity at 10 µM: 116%
[34]
  remaining activity at 10 µM: 112%
[35]
  remaining activity at 10 µM: 62.4%
[36]
  remaining activity at 10 µM: 75.3%
[37]
  remaining activity at 10 µM: 114%
[38]
  remaining activity at 10 µM: 101%
